Measurements published in ChEMBL document CHEMBL6134930, “Discovery of AB801, a Potent and Selective Inhibitor of AXL Receptor Tyrosine Kinase for Use in Cancer Therapy” (J Med Chem, 2025).

Experiments:
[1] = molecular target: T1, Tyrosine-protein kinase receptor UFO (Homo sapiens, UniProt P30530); assay: Inhibition of human AXL measured after 150 mins by ATP-competitive HTRF based biochemical assay
T1 sequence (P30530 whole entry): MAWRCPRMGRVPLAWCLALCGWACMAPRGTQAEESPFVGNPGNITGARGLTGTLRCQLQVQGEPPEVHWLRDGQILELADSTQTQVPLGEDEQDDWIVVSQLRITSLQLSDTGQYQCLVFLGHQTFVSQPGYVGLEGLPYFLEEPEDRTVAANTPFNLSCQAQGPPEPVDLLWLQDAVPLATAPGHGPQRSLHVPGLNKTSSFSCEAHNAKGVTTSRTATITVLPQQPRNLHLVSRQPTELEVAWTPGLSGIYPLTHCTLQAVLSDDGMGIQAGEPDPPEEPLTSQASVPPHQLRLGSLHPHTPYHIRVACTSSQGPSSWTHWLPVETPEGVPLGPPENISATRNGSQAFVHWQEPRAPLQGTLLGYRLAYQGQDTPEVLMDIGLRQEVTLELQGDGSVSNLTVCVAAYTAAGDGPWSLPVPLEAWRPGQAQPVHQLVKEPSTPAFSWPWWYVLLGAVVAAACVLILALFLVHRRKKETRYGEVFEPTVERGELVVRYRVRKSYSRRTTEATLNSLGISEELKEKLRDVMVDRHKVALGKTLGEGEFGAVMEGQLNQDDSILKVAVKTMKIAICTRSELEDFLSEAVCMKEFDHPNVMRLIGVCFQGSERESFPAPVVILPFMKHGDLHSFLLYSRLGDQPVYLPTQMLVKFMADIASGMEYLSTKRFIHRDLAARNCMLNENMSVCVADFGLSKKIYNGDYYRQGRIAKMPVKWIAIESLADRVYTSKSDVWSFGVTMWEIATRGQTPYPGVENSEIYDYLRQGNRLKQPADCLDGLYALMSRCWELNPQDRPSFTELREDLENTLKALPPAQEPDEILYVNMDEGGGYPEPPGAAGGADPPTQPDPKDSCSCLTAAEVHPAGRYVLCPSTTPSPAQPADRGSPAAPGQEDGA

[2] = molecular target: T1, Tyrosine-protein kinase receptor UFO; assay: Binding affinity to AXL (unknown origin) expressed in HEK293 cells transfected with Nano-Luc fusion vector assessed as dissociation constant by measuring decrease in BRET signal preincubated for 1 hr followed by K-5 NanoBRET tracer addition incubated for 2 hrs; format: cell-based
[3] = Metabolic stability in rat hepatocytes assessed as intrinsic clearance measured per 10^6 cells; format: ADME, cell-based, Hepatocyte; details: read-out: CLH
[4] = AUCinf in Sprague-Dawley rat at 2 mg/kg, po measured up to 8 hrs by LC-MS/MS analysis; format: ADME, organism-based; details: in vivo
[5] = Metabolic stability in human hepatocytes assessed as intrinsic clearance measured per 10^6 cells; format: ADME, cell-based, Hepatocyte; details: read-out: CLH
[6] = molecular target: T1, Tyrosine-protein kinase receptor UFO; assay: Inhibition of autophosphorylation AXL (unknown origin) expressed in HEK293 cells assessed as NanoLuc activity associated with phosphorylated proteins measured after 1 hr incubation by intracellular pAXL-ELISA; format: cell-based
[7] = Clearance in Sprague-Dawley rat at 0.5 mg/kg, iv measured up to 24 hrs by LC-MS/MS analysis; format: ADME, organism-based; details: in vivo
[8] = Efflux ratio in human Caco-2 cells; format: ADME, cell-based
[9] = Apparent permeability of compound from apical to basolateral side in human Caco-2 cells; format: ADME, cell-based; details: read-out: permeability
hERG (KCNH2) = hERG (KCNH2) (Homo sapiens, UniProt Q12809); assay: Inhibition of hERG at 10 uM by high throughput cell based patch clamp assay; format: toxicity
hERG (KCNH2), sequence (Q12809 whole entry): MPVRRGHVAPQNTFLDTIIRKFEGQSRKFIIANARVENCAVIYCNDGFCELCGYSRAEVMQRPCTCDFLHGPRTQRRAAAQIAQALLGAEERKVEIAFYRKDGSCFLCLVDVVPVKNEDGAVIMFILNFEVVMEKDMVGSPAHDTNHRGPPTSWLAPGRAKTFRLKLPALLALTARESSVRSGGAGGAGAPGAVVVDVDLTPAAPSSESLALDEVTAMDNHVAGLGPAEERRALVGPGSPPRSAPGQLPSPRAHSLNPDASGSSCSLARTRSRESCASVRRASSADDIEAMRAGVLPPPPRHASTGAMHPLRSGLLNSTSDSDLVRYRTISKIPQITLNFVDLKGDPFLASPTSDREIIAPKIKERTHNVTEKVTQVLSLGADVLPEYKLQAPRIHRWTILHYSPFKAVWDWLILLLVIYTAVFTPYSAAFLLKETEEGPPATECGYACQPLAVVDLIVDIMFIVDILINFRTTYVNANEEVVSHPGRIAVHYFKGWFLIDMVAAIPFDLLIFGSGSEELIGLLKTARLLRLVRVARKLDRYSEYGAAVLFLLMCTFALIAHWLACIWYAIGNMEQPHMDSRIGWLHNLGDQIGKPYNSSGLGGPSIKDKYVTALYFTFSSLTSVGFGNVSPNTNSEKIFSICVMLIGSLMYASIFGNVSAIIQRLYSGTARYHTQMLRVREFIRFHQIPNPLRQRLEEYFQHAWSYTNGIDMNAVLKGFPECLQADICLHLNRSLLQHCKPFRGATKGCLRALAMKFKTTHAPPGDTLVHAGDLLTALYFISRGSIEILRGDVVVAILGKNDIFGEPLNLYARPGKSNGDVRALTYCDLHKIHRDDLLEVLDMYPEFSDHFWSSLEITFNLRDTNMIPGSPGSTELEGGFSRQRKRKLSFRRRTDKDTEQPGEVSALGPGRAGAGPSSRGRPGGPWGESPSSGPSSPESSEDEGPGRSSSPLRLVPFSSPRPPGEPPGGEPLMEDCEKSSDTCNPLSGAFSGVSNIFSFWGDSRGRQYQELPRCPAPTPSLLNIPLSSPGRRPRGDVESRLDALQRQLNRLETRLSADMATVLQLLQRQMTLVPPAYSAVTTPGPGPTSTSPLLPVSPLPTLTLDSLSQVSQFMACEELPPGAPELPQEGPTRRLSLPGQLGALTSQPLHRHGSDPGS

Row | Compound | IC50 [1] [nM] | Kd [2] [nM] | hepatocyte CLint [3] [µL/min/1e6 cells] | AUC(0-inf) [4] [ng·h/mL] | hepatocyte CLint [5] [µL/min/1e6 cells] | IC50 [6] [nM] | clearance [7] [mL/min/kg] | efflux ratio [8] | Papp A→B [9] [×10⁻⁶ cm/s] | inhibition at 10 µM (hERG (KCNH2)) [%]
1 | Cn1nccc1-c1ccc(-c2n[nH]c3ncc(-c4ccc5c(c4)CC[C@@H](N4C6COCC4C6)CC5)cc23)cc1 | 3.9 | 31 |  |  |  |  |  |  |  | 
2 | CS(=O)(=O)c1ccc(-c2n[nH]c3ncc(-c4ccc5c(c4)CC[C@@H](N4C6COCC4C6)CC5)cc23)cc1 | 3.8 | 13 | 9.8 | 120 | 5.8 |  |  |  |  | 
3 | c1cc2c(cc1-c1cnc3[nH]nc(-c4ccc(N5CCOCC5)cc4)c3c1)CC[C@@H](N1C3COCC1C3)CC2 | 66 | 190 |  |  |  |  |  |  |  | 
4 | N#Cc1cccnc1-c1ccc(-c2n[nH]c3ncc(-c4ccc5c(c4)CC[C@@H](N4C6COCC4C6)CC5)cc23)cc1 | 6 |  | < 2.7 |  | < 2.7 | 220 |  |  |  | 
5 | c1cc2c(cc1-c1cnc3[nH]nc(-c4ccc(N5C[C@H]6C[C@@H]5CO6)cc4)c3c1)CC[C@@H](N1C3COCC1C3)CC2 | 28 | 130 | 12 | 2900 | 7.2 |  | 38.3 | 1.2 | 6.7 | 
6 | Cc1cccnc1-c1ccc(-c2n[nH]c3ncc(-c4ccc5c(c4)CC[C@@H](N4C[C@@H]6C[C@H]4CO6)CC5)cc23)cc1 | 1.8 |  | 13 |  | < 2.7 | 57 |  |  |  | 
7 | c1cc2c(cc1-c1cnc3[nH]nc(-c4ccc(N5C[C@@H]6C[C@H]5CO6)cc4)c3c1)CC[C@@H](N1C3COCC1C3)CC2 | 46 | 140 |  |  |  |  |  |  |  | 
8 | c1cc2c(cc1-c1cnc3[nH]nc(-c4ccc5c(c4)OCCO5)c3c1)CCC(N1C3COCC1C3)CC2 (racemic) | 17 | 69 | 46 |  | 16 |  |  |  |  | 
9 | COCCOc1ccc(-c2n[nH]c3ncc(-c4ccc5c(c4)CC[C@@H](N4C6COCC4C6)CC5)cc23)cc1 | 12 | 66 | 9.1 | 4200 | 14 |  | 15 | 0.93 | 17 | 84
10 | CP(C)(=O)c1ccc(-c2n[nH]c3ncc(-c4ccc5c(c4)CCC(N4C6COCC4C6)CC5)cc23)cc1 (racemic) |  | 170 |  |  |  |  |  |  |  | 
11 | CN(C)S(=O)(=O)c1ccc(-c2n[nH]c3ncc(-c4ccc5c(c4)CC[C@@H](N4C6COCC4C6)CC5)cc23)cc1 | 2.6 | 15 | 110 |  | 36 |  |  |  |  | 
12 | O=S1(=O)CCCN1c1ccc(-c2n[nH]c3ncc(-c4ccc5c(c4)CC[C@@H](N4C6COCC4C6)CC5)cc23)cc1 | 13 | 51 | < 2.7 | 39 | < 2.7 |  |  |  |  | 
13 | COc1cccnc1-c1ccc(-c2n[nH]c3ncc(-c4ccc5c(c4)CC[C@@H](N4C6COCC4C6)CC5)cc23)cc1 | 2.4 |  | 16 |  | 13 | 120 |  |  |  | 
14 | Cn1ccnc1-c1ccc(-c2n[nH]c3ncc(-c4ccc5c(c4)CC[C@@H](N4C6COCC4C6)CC5)cc23)cc1 | 0.63 | 1.9 | 16 | 160 | < 2.7 |  |  | 18 |  | 
15 | Cn1ncnc1-c1ccc(-c2n[nH]c3ncc(-c4ccc5c(c4)CC[C@@H](N4C6COCC4C6)CC5)cc23)cc1 | 2.7 | 7.1 | 5 | 410 | < 2.7 |  |  | 5.7 |  | 
16 | Cc1cccnc1-c1ccc(-c2n[nH]c3ncc(-c4ccc5c(c4)CC[C@@H](N[C@H]4CCCOC4)CC5)cc23)cc1 | 2.6 |  | 12 |  | 5.8 | 100 |  |  |  | 
17 | c1cc2c(cc1-c1cnc3[nH]nc(-c4ccc(N5CC6(COC6)C5)cc4)c3c1)CC[C@@H](N1C3COCC1C3)CC2 | 27 | 120 |  |  |  |  |  |  |  | 
18 | CCc1cccnc1-c1ccc(-c2n[nH]c3ncc(-c4ccc5c(c4)CC[C@@H](N4C6COCC4C6)CC5)cc23)cc1 | 1.4 |  | 30 |  | 6.3 | 190 |  |  |  | 
19 | COCCOc1cccnc1-c1ccc(-c2n[nH]c3ncc(-c4ccc5c(c4)CC[C@@H](N4C6COCC4C6)CC5)cc23)cc1 | 1.3 |  | 16 |  | 3.2 | 33 |  |  |  | 
20 | CO[C@H]1C[C@@H](N[C@H]2CCc3ccc(-c4cnc5[nH]nc(-c6ccc(-c7ncccc7C)cc6)c5c4)cc3CC2)C1 | 3.4 |  | 6.4 |  | < 2.7 | 310 |  |  |  | 
21 | c1cncc(-c2ccc(-c3n[nH]c4ncc(-c5ccc6c(c5)CC[C@@H](N5C7COCC5C7)CC6)cc34)cc2)c1 | 19 | 410 |  |  |  |  |  |  |  | 
22 | c1cc(-c2n[nH]c3ncc(-c4ccc5c(c4)CCC(N4C6COCC4C6)CC5)cc23)ccn1 (racemic) | 20 | 38 | 13 | 130 | 8.7 |  |  |  |  | 
23 | c1ccc(-c2ccc(-c3n[nH]c4ncc(-c5ccc6c(c5)CC[C@@H](N5C7COCC5C7)CC6)cc34)cc2)nc1 | 5 | 75 | < 2.7 | 2800 | < 2.7 | 1700 |  |  |  | 
24 | O=C1CCCN1c1ccc(-c2n[nH]c3ncc(-c4ccc5c(c4)CC[C@@H](N4C6COCC4C6)CC5)cc23)cc1 | 60 | 89 |  |  |  |  |  |  |  | 
25 | FC(F)(F)c1cccnc1-c1ccc(-c2n[nH]c3ncc(-c4ccc5c(c4)CC[C@@H](N4C6COCC4C6)CC5)cc23)cc1 | 8.2 |  | < 2.7 |  | < 2.7 | 730 |  |  |  | 
26 | Cn1nncc1-c1ccc(-c2n[nH]c3ncc(-c4ccc5c(c4)CC[C@@H](N4C6COCC4C6)CC5)cc23)cc1 | 8.9 | 91 |  |  |  |  |  |  |  | 
27 | Cc1cccnc1-c1ccc(-c2n[nH]c3ncc(-c4ccc5c(c4)CC[C@@](C)(N4CCC[C@H]4C)CC5)cc23)cc1 | 0.75 |  | < 2.7 | 380 | < 2.7 | 13 |  |  |  | 
28 | Cn1cc(-c2ccc(-c3n[nH]c4ncc(-c5ccc6c(c5)CCC(N5C7COCC5C7)CC6)cc34)cc2)cn1 (racemic) | 34 | 2200 |  |  |  |  |  |  |  | 
